Data taken from US11167040B2, “Conjugates comprising peptide groups and methods related thereto” (priority 2015, dated 2021).
pIC50: −log10 of the molar value. Square brackets hold non-standard residues; d marks the D form. Peptide text beside a SMILES is read from it. Dolaproine = CO[C@@H]([C@@H]1CCCN1)[C@@H](C)C(=O)O; Dil = CC[C@H](C)[C@H](NC)[C@@H](CC(=O)O)OC; NMeV = CN[C@H](C(=O)O)C(C)C

Key:
[1] = system: HCC-827 cells, which express an intermediate level of EGFR; assay: Cytotoxicity of Erbitux based ADCs, SRB; assay type: cell-based; settings: 72 hours; read-out: IC50 against HCC-827 cells
Protocol: (§1) A431 cells, which express high levels of EGFR, and MCF-7 cells, which express low levels of EGFR, were plated at about 1000 cells per well in a 96-well plate in 100 μL of media. HCC-827 cells, which express an intermediate level of EGFR were plated at about 5000 cells per well in a 96-well plate in 100 μL of media. […] The cells were incubated for 72 hours and then fixed for 1 hour at 4° C. after adding 100 μL of ice-cold 10% trichloroacetic acid to each well.

[2] = system: MCF-7 cells, which express low levels of EGFR; assay: Cytotoxicity of Erbitux based ADCs, SRB; assay type: cell-based; settings: 72 hours; read-out: IC50 against MCF-7 cells
Protocol: as §1

[3] = system: A431 cells, which express high levels of EGFR; assay: Cytotoxicity of Erbitux based ADCs, SRB; assay type: cell-based; settings: 72 hours; read-out: IC50 against A431 cells
Protocol: as §1

SK-OV-3 (HER2 positive) = assay: Cytotoxicity of anti-HER2 ADCs, SRB assay; assay type: cell-based, human; settings: Table 12, hybrid ADCs
Protocol: (§2) Commercially available human breast cancer cell lines MCF-7 (HER2 negative to normal), OE-19 (HER2 positive), NCI-N87 (HER2 positive), SK-OV-3 (HER2 positive), JIMT-1 (HER2 positive), and SK-BR-3 (HER2 positive) were used. The cell lines were cultured according to recommended specifications provided with the commercially available cell lines.
(§3) Anti-proliferation activities of the antibodies, drugs, and conjugates with regard to the cancer cell lines were measured. The cells were plated in 96-well, tissue culture plates at 1×10^4 cells per well. After 24 hour incubation, the antibodies, drugs, and conjugates were added in various concentrations. The number of viable cells after 72 hours were counted using SRB assay. Absorbance was measured at 540 nm using SpectraMax 190 (Molecular Devices, USA).

[4] = system: MCF-7 (HER2 negative to normal); assay: Cytotoxicity of anti-HER2 ADCs, SRB assay; assay type: cell-based, human; settings: Table 12, hybrid ADCs
Protocol: as §2, §3

NCI-N87 (HER2 positive) = assay: Cytotoxicity of anti-HER2 ADCs, SRB assay; assay type: cell-based, human; settings: Table 12, hybrid ADCs
Protocol: as §2, §3

SK-BR3 cells = assay: Plasma stability of ADCs: human plasma incubation, then SRB cytotoxicity test; assay type: cell-based; settings: Table 18; human plasma 0 h; SK-BR3 cells 72 hr; read-out: Plasma stability of Herceptin based ADCs (nM), Plasma incubation time 0 h

CC[C@H](C)[C@@H]([C@@H](CC(=O)N1CCC[C@H]1[C@H](OC)[C@@H](C)C(=O)N[C@@H](Cc1ccccc1)C(=O)OC)OC)N(C)C(=O)[C@@H](NC(=O)[C@@H](NC)C(C)C)C(C)C [MMAF-OMe, monomethyl auristatin F methyl ester] (H-[NMeV]V[Dil][Dolaproine]F-OMe)
pIC50 [1]: 8.70
pIC50 [2]: 8.74
pIC50 [3]: 8.95
IC50 (SK-OV-3 (HER2 positive)): 0.78 nM
IC50 [4]: 0.6 nM
IC50 (NCI-N87 (HER2 positive)): 0.49 nM
IC50 (SK-BR3 cells): 0.48 nM
